Experimental data published in patent publication US20250163006A1, “New Coolants, and Preparations Containing Same” (Symrise AG, priority 2022, published 2025).
Read-outs that look alike come from different tables or passages of the source.

Columns and labels:
human TRPM8 receptor = molecular target: T1, human TRPM8 receptor (Homo sapiens, UniProt Q7Z2W7); experiment: Assay on TRPM8 modulators: Ca2+-sensitive dye (Fluo-4) fluorescence in HEK293-TRPM8 test cells; type: cell-based; design: relative TRPM8 activation: concentration or dose not given beside the values; conditions: for EC50: HEK293-TRPM8 cells; for relative TRPM8 activation: HEK293 cells recombinantly expressing human TRPM8
T1 construct: expressed in transfected cells; host or cells: HEK293, stably transfected, tetracycline-inducible expression
T1 sequence (Q7Z2W7 whole entry): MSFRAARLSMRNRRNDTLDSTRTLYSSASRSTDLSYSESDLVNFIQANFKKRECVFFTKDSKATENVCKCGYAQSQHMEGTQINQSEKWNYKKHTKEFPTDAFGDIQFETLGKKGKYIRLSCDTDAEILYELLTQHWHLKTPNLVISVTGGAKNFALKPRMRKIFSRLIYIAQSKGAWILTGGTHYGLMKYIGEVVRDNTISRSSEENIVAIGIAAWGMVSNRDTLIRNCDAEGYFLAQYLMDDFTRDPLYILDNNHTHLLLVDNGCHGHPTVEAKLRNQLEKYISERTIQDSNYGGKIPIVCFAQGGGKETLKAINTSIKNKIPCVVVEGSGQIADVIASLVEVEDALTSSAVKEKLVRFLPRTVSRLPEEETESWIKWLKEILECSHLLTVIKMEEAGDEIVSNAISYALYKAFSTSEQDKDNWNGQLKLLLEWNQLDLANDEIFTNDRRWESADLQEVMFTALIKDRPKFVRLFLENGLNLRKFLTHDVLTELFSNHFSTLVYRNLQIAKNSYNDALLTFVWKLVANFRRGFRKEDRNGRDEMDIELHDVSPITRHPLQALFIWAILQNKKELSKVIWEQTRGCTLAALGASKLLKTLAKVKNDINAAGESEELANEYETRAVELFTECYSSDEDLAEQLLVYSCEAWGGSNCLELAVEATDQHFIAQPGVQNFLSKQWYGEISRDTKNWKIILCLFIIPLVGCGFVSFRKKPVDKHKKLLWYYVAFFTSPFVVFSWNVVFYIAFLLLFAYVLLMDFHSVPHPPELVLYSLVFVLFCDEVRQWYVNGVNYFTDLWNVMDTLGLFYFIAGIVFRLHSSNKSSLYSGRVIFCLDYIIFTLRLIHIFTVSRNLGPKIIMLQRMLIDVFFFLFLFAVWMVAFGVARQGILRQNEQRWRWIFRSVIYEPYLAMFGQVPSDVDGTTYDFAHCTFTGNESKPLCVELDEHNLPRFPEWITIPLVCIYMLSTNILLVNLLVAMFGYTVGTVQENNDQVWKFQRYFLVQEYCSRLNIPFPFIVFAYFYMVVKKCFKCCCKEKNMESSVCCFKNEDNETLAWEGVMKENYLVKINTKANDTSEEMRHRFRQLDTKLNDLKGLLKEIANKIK
Outline: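 HEK293 cells stably carrying tetracycline-inducible human TRPM8 (1 µg/ml tetracycline), loaded next day with Fluo-4 (30 min 37 °C, 30 min RT). Compounds tested in triplicate at 0.1–200 µM (≤2% DMSO) and fluorescence read at 485/520 nm. EC50 from 4- or 5-parameter logistic fits of 6–10 concentrations.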

[1] = Sensory tasting of cooling intensity by trained panelists, WS-3 as reference; type: in vivo, human; conditions: 5 ppm in 5% sugar solution, rated after one minute, scale 1 (very weak) to 9 (very strong); for Sensory evaluation: cooling intensity; for cooling intensity (sensory evaluation, score): tasted 40 seconds, n=10 to 11
Method: In order to quantify the cooling effect, comparative tests are carried out using menthane-3-carboxylic acid-N-ethylamide as a reference. For these comparative tests, the skilled person replaces the compound or compounds to be used according to the invention with menthane-3-carboxylic acid-N-ethylamide (also referred to as WS-3). Then the intensities of the cooling effects of the respective compounds or active ingredients are sensory evaluated by trained panelists (n=10 to 11) as described below and compared with each other.
The cooling intensity was tested as follows: Test solutions with 5 ppm of the compounds according to the invention were each tasted in a 5% sugar solution as well as a corresponding solution with 30 ppm of the reference substance WS-3. […] The panelists tasted the corresponding test solutions for exactly 40 seconds, rinsing the entire mouth with the corresponding test solution and then spitting out the sample or reference solution. Following the tasting, the test subjects rated the respective cooling intensity after one minute according to a scale of 1 (very weak) to 9 (very strong).

[2] = TRPM8 activation, 6 to 10 concentrations, logistic curve fitting, read-out: EC50 value

Compound | EC50 (human TRPM8 receptor; [2]) [nM] | EC50 (human TRPM8 receptor; Table 6, read-out: TRPM8 EC50) [nM] | EC50 (human TRPM8 receptor; Table 8, read-out: TRPM8 EC50) [nM] | Sensory evaluation ([1]; Table 6) | Sensory evaluation ([1]; Table 10) | relative TRPM8 activation (human TRPM8 receptor) [%] | cooling intensity (sensory evaluation, score) [1] | Sensory evaluation ([1]; Table 5) | Sensory evaluation ([1]; Table 9)
CNC(=O)[C@H]1C[C@H]1c1nc(-c2ccccc2)c(-c2ccccc2)o1 (racemic) [Compound A-04, rac-(1S,2R)-2-(4,5-diphenyloxazol-2-yl)-N-methyl-cyclopropane-carboxamides] | ≤ 1000 | 600 | 600 | 0.5 | 0.5 | – | – | – | –
CNC(=O)[C@H]1C[C@@H]1c1nc(-c2ccccc2)c(-c2ccccc2)o1 (racemic) [Compound A-39, rac-(1S,2S)-2-(4,5-diphenyloxazol-2-yl)-N-methyl-cyclopropane-carboxamides] | – | – | – | 0.7 | – | 5 | – | – | –
CNC(=O)C(C)Sc1nc(-c2ccccc2)c(-c2ccccc2)o1 (stereo not drawn) [Compound A-02, 2-(4,5-diphenyloxazol-2-yl)sulfanyl-N-methyl-propanamide] | – | 10 | 10 | 5.4 | 5.4 | – | 5.4 | – | –
CNC(=O)C(C)Sc1nc(C)c(-c2ccccc2)o1 (stereo not drawn) [Compound A-05, N-methyl-2-(4-methyl-5-phenyl-oxazol-2-yl)sulfanyl-propanamide] | – | 2310 | 2310 | 1.1 | 1.1 | – | – | – | –
CCNC(=O)CCc1nc(-c2ccccc2)c(-c2ccccc2)o1 [Compound A-07, 3-(4,5-diphenyloxazol-2-yl)-N-ethyl-propanamide] | ≤ 1000 | 150 | 150 | 2.67 | 2.67 | – | – | – | –
CCC(Sc1nc(-c2ccccc2)c(-c2ccccc2)o1)C(=O)NC (stereo not drawn) [Compound A-09, 2-(4,5-diphenyloxazol-2-yl)sulfanyl-N-methyl-butanamide] | – | 1540 | 1540 | 4.66 | 4.66 | – | 4.66 | – | –
CC(Sc1nc(-c2ccccc2)c(-c2ccccc2)o1)C(=O)NC1CC1 (stereo not drawn) [Compound A-10, N-cyclopropyl-2-(4,5-diphenyloxazol-2-yl) sulfanyl-propanamide] | – | 2130 | 2130 | 5.38 | 5.38 | – | 5.38 | – | –
CCCNC(=O)C(C)Sc1nc(-c2ccccc2)c(-c2ccccc2)o1 (stereo not drawn) [Compound A-12, 2-(4,5-diphenyloxazol-2-yl)sulfanyl-N-propyl-propanamide] | – | 5090 | 5090 | 1.26 | 1.26 | – | – | – | –
CNC(=O)CCc1nc(-c2ccccc2)c(-c2ccccc2)o1 [Compound A-16, 3-(4,5-diphenyloxazol-2-yl)-N-methyl-propanamide] | – | 4270 | 4270 | 2.3 | 2.3 | – | – | – | –
O=C(CCc1nc(-c2ccccc2)c(-c2ccccc2)o1)NC1CC1 [Compound A-18, N-cyclopropyl-3-(4,5-diphenyloxazol-2-yl)propanamide] | – | – | – | 0.71 | – | 80 | – | – | –
CC(Sc1nc(-c2ccccc2)c(-c2ccccc2)o1)C(N)=O (stereo not drawn) [Compound A-20, 2-(4,5-diphenyloxazol-2-yl)sulfanyl-propanamide] | – | – | – | 0.81 | – | 73 | – | – | –
O=C(CCc1nc(-c2ccccc2)c(-c2ccccc2)o1)NC1CC1 [Compound A-22, N-cyclopropyl-3-(4,5-diphenyloxazol-2-yl)propanamide] | – | – | – | 0.8 | – | 69 | – | – | –
O=C(CSc1nnc(-c2ccccc2)c(-c2ccccc2)n1)NC1CC1 [Compound B-19, N-cyclopropyl-2-[(5,6-diphenyl-1,2,4-triazin-3-yl)sulfanyl]acetamide] | – | – | – | – | – | – | – | 1.9 | 1.9
CCNC(=O)C1CC(C)CCC1C(C)C [WS-3, L-menthanecarboxylic acid N-ethylamide, reference compound] | 1720 | – | – | – | – | – | – | – | –
